{"source": "patent US20120129842A1", "about": "“BISTHIAZOLE INHIBITORS OF PRO-MATRIX METALLOPROTEINASE ACTIVATION” (priority 2010, published 2012)", "molecular_target": "T1, MMP9 mediated gelatinase activity (Rattus norvegicus, UniProt P50282)", "T1 construct": "from tissue; host or cells: liver cryosections of female Lewis rats", "T1 sequence (P50282 108-708)": "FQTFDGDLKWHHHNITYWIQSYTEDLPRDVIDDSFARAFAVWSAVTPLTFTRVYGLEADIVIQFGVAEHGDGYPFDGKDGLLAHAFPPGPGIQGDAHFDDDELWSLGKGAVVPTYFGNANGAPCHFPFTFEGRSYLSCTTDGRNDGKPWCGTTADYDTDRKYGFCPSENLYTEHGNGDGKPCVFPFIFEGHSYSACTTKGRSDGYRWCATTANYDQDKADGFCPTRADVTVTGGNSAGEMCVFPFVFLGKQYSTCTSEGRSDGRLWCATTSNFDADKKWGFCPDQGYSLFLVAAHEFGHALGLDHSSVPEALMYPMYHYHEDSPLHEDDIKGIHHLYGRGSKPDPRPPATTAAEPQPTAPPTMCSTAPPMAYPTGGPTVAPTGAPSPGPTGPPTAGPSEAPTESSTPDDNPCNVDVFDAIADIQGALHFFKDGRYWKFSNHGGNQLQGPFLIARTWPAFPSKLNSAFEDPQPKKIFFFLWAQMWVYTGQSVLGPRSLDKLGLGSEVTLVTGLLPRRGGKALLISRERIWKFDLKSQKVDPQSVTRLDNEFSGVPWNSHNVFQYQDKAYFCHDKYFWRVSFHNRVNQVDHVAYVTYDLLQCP", "assay": "Liver in situ zymography of SCW-induced rats dosed with compound", "type": "in vivo", "conditions": "for Intensity (RLU × 10^6) Rat 1 / Intensity (RLU × 10^6) Rat 2 / Intensity (RLU × 10^6) Rat 3 / Intensity (RLU × 10^6) Mean: Day 25-28, liver; for Intensity (RLU × 10^6) Mean: n=3", "excerpt": "In situ zymography provides an alternative approach to assess active MMP9 in tissues (Frederiks). Tissue sections are overlain with fluorescene-conjugated gelatin wherein the conjugation is sufficiently dense to cause the fluorescene to be dye-quenched (DQ). Proteolytic degradation of the DQ-gelatin releases the fluorescene from the quenching effect giving rise to bright green fluorescence at the site of degradation. Because in situ zymography requires the use of frozen sections, calcified tissues are problematic. However, an additional feature of the SCW arthritis model is the development of hepatic granulomatous disease (J Immunol; 1986; 137:2199-2209), and MMP9 reportedly plays a role in macrophage recruitment in the granulomas response to mycobacteria (Infect Immun; 2006; 74:6135-6144). Consequently, granulomatous livers from SCW-treated rats were assessed for active MMP9 by in situ zymography.\nAs described above, Female Lewis (LEW/N) rats, 5-6 weeks of age (80-100 g) were injected (i.p.) with saline or SCW PG-PS. On day 28, when the granulomatous response was well established, animals were sacrificed and livers were frozen in OCT cryo-sectioning medium and 10 μm sections were cut on a Cryome HM 500 M cryotome and mounted on glass microscope slides. Sections were air dried briefly. MMP9 was confirmed as the source of the gelatinase activity in the liver by treating liver sections with monoclonal antibodies directed against the active site of the two major gelatinases MMP9 and MMP2. Liver sections overlain with 50 μL of 100 μg/mL neutralizing mouse monoclonal antibodies directed against MMP9 (Calbiochem, clone 6-6B), or MMP2 (Millipore, clone CA-4001), or with PBS for 1 hr at room temperature. Tissues were rinsed once with PBS, blotted, and briefly air dried and then overlain with DQ-gelatin (Invitrogen) dissolved to 1 mg/mL in deionized water and then diluted 1:10 in 1% wt/vol low gelling point agarose type VII (Sigma) in PBS. The sections were covered with coverslips, incubated in the dark at room temperature for 20 min, and imaged on an Olympus IX80 inverted microscope fitted with fluorescence optics, using SlideBook™ imaging software (Intelligent Imaging Innovations, Inc., Philadelphia, Pa.; version 5.0). Fluorescence intensity was determined (Table 8). When compared to a saline-treated rat, gelatinase activity was abundantly expressed in granulomatous liver sections obtained from a rat with SCW arthritis.\nNext, liver in situ zymography was used to assess the relative presence of active MMP9 in rats dosed with vehicle vs. Example 64. Female Lewis (LEW/N) rats, 5-6 weeks of age (80-100 g) were injected (i.p.) with saline or SCW PG-PS. Commencing on day 25, randomized groups of rats (n=3 rats/group) received vehicle or 20 or 50 mg/kg Example 64 BID by oral gavage. Vehicle consisted of an aqueous mixture containing 2% (v:v) N-methylpyrrolidone, 5% (v:v) glycerine, and 20% (w:v) captisol. Treatment continued daily through the morning of day 28. Four hrs after the AM dose on day 28, rats were sacrificed and livers assessed for active MMP9 by in situ zymography (Table 9). Gelatinase activity was increased markedly in SCW-induced rats, but activity was reduced by approximately 80% in animals treated with 50 mg/kg Example 64."}
{"compound": "Cc1nc(C)c(-c2csc(Nc3cc(S(N)(=O)=O)ccc3OC(C)C)n2)s1", "note": "[Example 64, 3-(2′,4′-Dimethyl-[4,5′]bithiazolyl-2-ylamino)-4-isopropoxy-benzenesulfonamide.HBr]", "values": [{"measurement": "Intensity (RLU × 10^6) Rat 1", "setting": "20 mg/kg BID oral", "value": 43.0, "unit": "RLU × 10^6"}, {"measurement": "Intensity (RLU × 10^6) Rat 2", "setting": "20 mg/kg BID oral", "value": 69.0, "unit": "RLU × 10^6"}, {"measurement": "Intensity (RLU × 10^6) Rat 3", "setting": "20 mg/kg BID oral", "value": 53.7, "unit": "RLU × 10^6"}, {"measurement": "Intensity (RLU × 10^6) Mean", "setting": "20 mg/kg BID oral", "value": 55.2, "unit": "RLU × 10^6"}, {"measurement": "reduction of gelatinase activity in liver", "setting": "50 mg/kg BID oral, Day 25-28", "value": "approximately 80%"}, {"measurement": "Intensity (RLU × 10^6) Rat 1", "setting": "50 mg/kg BID oral", "value": 3.2, "unit": "RLU × 10^6"}, {"measurement": "Intensity (RLU × 10^6) Rat 2", "setting": "50 mg/kg BID oral", "value": 25.6, "unit": "RLU × 10^6"}, {"measurement": "Intensity (RLU × 10^6) Rat 3", "setting": "50 mg/kg BID oral", "value": 4.5, "unit": "RLU × 10^6"}, {"measurement": "Intensity (RLU × 10^6) Mean", "setting": "50 mg/kg BID oral", "value": 11.1, "unit": "RLU × 10^6"}]}
